Where a SMILES comes first, the peptide text is derived from it. [ ]: non-standard residue; d: D form. The star is where a group is joined. NH(TEMPO-4-yl) = CC1(C)CC(N*)CC(C)(C)N1[O]; Orn = NCCC[C@H](N)C(=O)O; Cbz = O=C(OCc1ccccc1)*; Boc = CC(C)(C)OC(=O)*
How the values were obtained:
Solubility in water = type: physicochemical
Text: All compositions are sterile filtered (e.g.) using a 0.2 micron filter (non sterile). • A. 0.1% DMSO 99.9% and RMPI 1640. Comments: with the low water solubility of JP4-039, DMSO is used in vitro experiments since it is a universal solvent which has been used in radiation biology experiments without any toxic effects. • B. 10% CrEL(Cremophor EL), 10% ethanol and 80% DI water. […] This formula dissolves the JP4-039. • C. Suspension of JP4-039 in F14 emulsion: Comments: F14 is a mixture of sesame oil, egg-phosphatidyl choline, Tween 80, and Span85 at ratios of 1:0.5:0.25:0.25 w/w, respectively. […] Comments: Sesame Seed Oil (100 mg/ml), Soy Phosphatidyl […] (50 mg/ml), JP4-039 (2 mg/ml), and Phosphate Buffered Saline. • Low dose (JP4-039): 5 mg/kg, 0.5 mg/ml. • Medium dose (JP4-039): 10 mg.kg, 1.0 mg/ml. • High dose (JP4-039): 20 mg/kg, 2.0 mg/ml. • Placebo/Vehicle (JP4-039): 0 mg/kg, 0 ing/ml • Exemplary dose (mouse): 200 μl of volume • E. JP4-039 dissolved in a solution of 45% 2-hydroxypropyl-β-cyclodextrin and 55% water. Comments: Cyclodextrins have a hydrophobic interior which compounds such as JP4-039 can complex in a rapid and reversible reaction. P-cyclodextrins have a cavity with an inner diameter of approximately 7.5 Å which is well suited for JP4-039.

mouse embryonic cells = assay: Gamma irradiation induced superoxide generation and cardiolipin oxidation; type: cell-based; conditions: 10 Gy, 20 μM
Method: Oxidation-dependent fluorogenic dye, DHE was used to evaluate intracellular production of superoxide radicals. DHE is cell permeable and, in the presence of superoxide, is oxidized to fluorescent ethidium which intercalates into DNA. Briefly, cells were treated with 5 μM DHE for 30 min at the end of incubation. Cells were then collected by trypsinization and resuspended in PBS. The fluorescence of ethidium was measured using a FACScan flow cytometer (Becton-Dickinson, Rutherford, N.J.) supplied with the CellQuest software. Mean fluorescence intensity from 10,000 cells was acquired using a 585/42 nm bandpass filter.
CL hydroperoxides were determined by fluorescence HPLC of products formed in MP-11-catalyzed reaction with a fluorogenic substrate, Amplex Red. […] Shimadzu LC-100AT vp HPLC system equipped with fluorescence detector (RF-10Axl, Ex/Em=560/590 nm) and autosampler (SIL-10AD vp) were used for the analysis of products separated by HPLC (Eclipse XDB-C18 column, 5 μm, 150×4.6 mm) Mobile phase was composed of NaH2PO4 (25 mM, pH 7.0)/methanol (60:40 v/v).
(A) superoxide generation. […] Ethidium fluorescence was analyzed using a FACScan flow cytometer supplied with CellQuest software. Mean fluorescence intensity from 10,000 cells was acquired using a 585-nm bandpass filter. […] Cardiolipin hydroperoxides were determined using a fluorescent HPLC-based Amplex Red assay. […]

| Structure (SMILES) | solubility in water (Solubility in water) | gamma irradiation induced cardiolipin peroxidation (mouse embryonic cells) | gamma irradiation induced superoxide generation (mouse embryonic cells; 10-min before or 1-h after irradiation) |
| --- | --- | --- | --- |
| CC(C)C[C@@H](/C=C/CC(=O)NC1CC(C)(C)N([O])C(C)(C)C1)NC(=O)OC(C)(C)C [JP4-039, (S,E)-5-(tert-Butoxycarbonylamino)-7-methyloct-3-enoic acid-TEMPO] | low solubility in water | – | – |
| CC(C)C[C@H](NC(=O)OC(C)(C)C)C(=O)N[C@H](Cc1ccccc1)C(=O)N1CCC[C@H]1C(=O)N[C@H](C(=O)N[C@@H](CCCNC(=O)OCc1ccccc1)C(=O)NC1CC(C)(C)N([O])C(C)(C)C1)C(C)C [XJB-5-125] (Boc-L[dF]PV[Orn](Cbz)-{NH(TEMPO-4-yl)}) | – | protects | protects |

From US8748369B2, “Use of targeted nitroxide agents in bone healing” (University of Pittsburgh-Of the Commonwealth System of …, priority 2009, dated 2014)
